According to PubChem BioAssay AID179 (DTP/NCI, 2004):
Active and inactive are the calls of the source.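 How the source made its calls: active means compounds giving half or more protection of infected cells from virus-caused growth loss, again on retest; inactive means the rest.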 Where a SMILES comes first, the peptide text is derived from it. The star is where a group is joined. Cbz = O=C(OCc1ccccc1)*; Boc = CC(C)(C)OC(=O)*; tBu = CC(C)(C)*

Tested on: CEM cells HIV-1 protection, formazan growth assay
Assay: NCI AIDS Antiviral Assay
Settings: for IC50: measured here: growth of uninfected CEM cells
Experimental: The ability of compounds to protect human CEM cells from HIV-1 infection is measured as a screen for new compounds capable of inhibiting the HIV virus. Five concentrations of drug were tested on uninfected and infected cells and cell growth was measured using a soluble formazan assay. […] Compounds that provided at least 50% protection were retested. Compounds that provided at least 50% protection on retest were listed as moderately active. Compounds that reproducibly provided 100% protection were listed as confirmed active. […] Note that the inability to provide protection could be due to toxicity.

| Compound | EC50 | IC50 | outcome |
| --- | --- | --- | --- |
| COC(=O)c1cc(C(=CCCCCCl)c2cc(Cl)c(OC)c(C(=O)OC)c2)cc(Cl)c1OC | 29.5 µM | > 200 µM | – |
| COCOc1ccc(C2(O)Oc3cc(OCOC)ccc3C2C)c(O)c1 (stereo not drawn) | > 200 µM | 24 µM | – |
| COC(=O)C(Cc1c[nH]c2ccccc12)NP(=O)(O)OCC1OC(n2ccc(N)nc2=O)C(O)C1O (stereo not drawn) | > 200 µM | 5.25 µM | – |
| CCN(C)N=Nc1ccc(C(N)=O)cc1 | > 1200 µM | 617 µM | – |
| CCCN(CCC)c1nc2ccc(NC(=O)OCC)cc2s1 | > 42.7 µM | 32.4 µM | – |
| COc1cc2c(cc1OC)C1CC(OC(=O)c3ccccc3)(c3nccc4cc(OC)c(OC)cc34)CCN1CC2 (stereo not drawn) | – | – | inactive |
| CN(C)CNc1ncnc2onc(-c3ccccc3)c12 | – | – | inactive |
| COC1=C(C(=O)OC(C)(C)C)C2C(C(=O)OC(C)(C)C)C(OC)=C(C(=O)OC(C)(C)C)C2C1C(=O)OC(C)(C)C (stereo not drawn) | > 31.6 µM | 17 µM | – |
| C[n+]1c2ccccc2c(CNCC(=O)O)c2ccccc21 | – | – | inactive |
| Oc1cc(Cc2ccccc2)c(Cc2ccccc2)cc1O | > 200 µM | 34.7 µM | – |
| Cc1c(-c2ccccc2)[nH]n(C2=NCCN2)c1=O | > 200 µM | 120 µM | – |
| CCOC(=O)c1c(C)c(N=O)c2ccccn12 | > 200 µM | 5.62 µM | – |
| OC(COc1ccc2ccccc2c1)COc1ccc2ccccc2c1 | > 200 µM | 138 µM | – |
| O=C(NC1C/C(=N/O)c2c(Br)sc(Br)c21)C(F)(F)F (stereo not drawn) | > 200 µM | 53.7 µM | – |
| N#CC(C(=O)C(=O)C(C#N)c1ccc(Br)cc1)c1ccc(Br)cc1 (stereo not drawn) | – | – | inactive |
| COc1nc(N2CCNCC2)nc2c1CCCC2 | – | – | inactive |
| CCc1ccccc1NC(=O)C1=C(C)NC(C)=C(C(=O)Nc2ccccc2CC)C1c1ccc2c(c1)OCO2 | > 13.8 µM | > 13.8 µM | – |
| NC(=S)N=Nc1c(O)cc(Nc2ccc(Cl)cc2Cl)c2ccccc12 | > 138 µM | 97.7 µM | – |
| CCOC(=O)c1c[nH]c(C(=O)C=[N+]=[N-])c1C1CCN(CC)C1=S (stereo not drawn) | > 200 µM | 138 µM | – |
| CC(=O)N1N=C(N)CC1=O | > 200 µM | > 200 µM | – |
| CC(O)c1ccc[n+](Cc2ccccc2)c1 (stereo not drawn) | > 1000 µM | 776 µM | – |
| CCCCNC(=S)Nc1nc(C(=O)NNC(=S)NCC)cs1 | > 200 µM | > 200 µM | – |

| Compound | EC50 | IC50 | outcome |
| --- | --- | --- | --- |
| CC(C)(C)C(=O)/C=C/c1cccc(F)c1 | – | – | inactive |
| CC(OC(C)(C)C)C(NC(=O)C(CCCCNC(=O)OC(C)(C)C)NC(=O)C(Cc1c[nH]c2ccccc12)NC(=O)C(Cc1ccccc1)NC(=O)OCc1ccccc1)C(=O)NC(Cc1ccccc1)C(=O)O (stereo not drawn) (Cbz-FWK(Boc)T(tBu)F-OH; configuration not given here) | > 200 µM | 35.5 µM | – |
| CC(=O)OC1(C#N)CC2OC1C1NC21 (stereo not drawn) | > 676 µM | > 676 µM | – |
| Fc1ccc2c3c([nH]c2c1)CCN(Cc1ccccc1)C3 | > 200 µM | 38 µM | – |
| O=C1CSC(c2ccc(Cl)cc2)N1c1ccc(-c2ccc(-n3c(-c4ccccc4)nc4ccccc4c3=O)cc2)cc1 (stereo not drawn) | > 200 µM | 47.9 µM | – |
| CSc1nnc2c(=O)n(C)c(=O)n(C)c2n1 | > 200 µM | 43.7 µM | – |
| C=C=C(CC)C(C(=O)OC)N(CC)CC (stereo not drawn) | – | – | inactive |
| C[n+]1ccc(Nc2ccc(O)cc2)c2ccc(Cl)cc21 | > 603 µM | 11 µM | – |
| CC1=N/C(=C\c2cccc(C#N)c2)C(=O)O1 | > 170 µM | 97.7 µM | – |
| O=C(O)[C@@H]1[C@H](OCc2ccccc2)[C@H](OCc2ccccc2)CN1C(=O)OCc1ccccc1 | > 200 µM | 115 µM | – |
| CCOC(=O)c1oc2c(OC)ccc3c2c1CCC3 | – | – | inactive |
| CN1C(=O)c2ccccc2C(C(=O)O)C1c1ccc2c(c1)OCO2 (stereo not drawn) | > 151 µM | > 151 µM | – |
| CCN(CC)CCCCC1CCN(CC(=O)N2c3ccccc3NC(=O)c3ccccc32)CC1 | > 282 µM | 158 µM | – |
| CN(C)C1=CC(=O)c2ccccc2C12CO2 (stereo not drawn) | > 234 µM | 41.7 µM | – |
| CSC(=S)Nc1cc(C)ccn1 | > 200 µM | 155 µM | – |
| O=C(CC1=NC2NN(c3ccccc3)C(=O)C2=C1CC(=O)c1cccc([N+](=O)[O-])c1)c1cccc([N+](=O)[O-])c1 (stereo not drawn) | > 129 µM | > 129 µM | – |
| CC1(C)CC(=O)C2=C(C1)OC1(CC2c2ccc(Cl)cc2)CC(c2ccc(Cl)cc2)C2=C(CC(C)(C)CC2=O)O1 (stereo not drawn) | > 100 µM | 15.1 µM | – |
| N#Cc1ccc(C=C2C(=O)NC(=O)NC2=O)cc1 | > 209 µM | 107 µM | – |
| CC(C)(C)[Si](C)(C)OC[C@@H](NC(=O)OCc1ccccc1)C(=O)O | > 200 µM | > 200 µM | – |
| O/N=C(/Cc1ccccc1)CC(O)(C(F)(F)F)C(F)(F)F | > 200 µM | 70.8 µM | – |
| C#CCOCC12C=CC(O1)C1C(=O)OCC12 (stereo not drawn) | > 200 µM | > 200 µM | – |
